Experimental data: US8124788B2, “Spirocyclic cyclohexane compounds with analgesic activity” (Gruenenthal GmbH, priority 2006, dated 2012)

Molecular target: T1, human μ opiate receptor (Homo sapiens, UniProt P35372)
T1 construct: purchased PerkinElmer Life Sciences, Zaventem, Belgium RB-HOM; host or cells: CHO-K1 cells (recombinant expression)
Assay: Affinity for the human μ opiate receptor ([3H]-naloxone displacement, CHO-K1 membrane preparation, SPA)
Assay type: binding
Conditions: compounds prepared via automated synthesis; single measurements at a test concentration of 1 μM
Protocol: The receptor affinity for the human μ opiate receptor is determined in a homogeneous set-up in microtitre plates. For this purpose, dilution series of the substances to be tested are incubated with a receptor membrane preparation (15-40 μg of protein/250 μl of incubation batch) of CHO-K1 cells which express the human μ opiate receptor (RB-HOM receptor membrane preparation from PerkinElmer Life Sciences, Zaventem, Belgium) in the presence of 1 nmol/l of the radioactive ligand [^3H]-naloxone (NET719, PerkinElmer Life Sciences, Zaventem, Belgium) and 1 mg of WGA-SPA-Beads (wheat germ agglutinin SPA beads from Amersham/Pharmacia, Freiburg, Germany) in a total volume of 250 μl for 90 minutes at room temperature. 50 mmol/l of Tris-HCl supplemented with 0.06% of bovine serum albumin are used as the incubation buffer. 100 μmol/l of naloxone are additionally added for determination of the non-specific binding. After the end of the ninety-minute incubation time, the microtitre plates are centrifuged for 20 minutes at 1,000 g and the radioactivity is measured in a β-counter (Microbeta-Trilum, PerkinElmer Wallac, Freiburg, Germany). The percentage displacement of the radioactive ligand from its binding to the human μ opiate receptor is determined at a concentration of the test substances of 1 μmol/l and stated as the percentage inhibition of the specific binding. Starting from the percentage displacement by various concentrations of the test substances, IC50 inhibitory concentrations which cause a 50 percent displacement of the radioactive ligand are calculated. By conversion by means of the Cheng-Prusoff relationship, Ki values for the test substances are obtained.

T1 sequence (P35372 whole entry): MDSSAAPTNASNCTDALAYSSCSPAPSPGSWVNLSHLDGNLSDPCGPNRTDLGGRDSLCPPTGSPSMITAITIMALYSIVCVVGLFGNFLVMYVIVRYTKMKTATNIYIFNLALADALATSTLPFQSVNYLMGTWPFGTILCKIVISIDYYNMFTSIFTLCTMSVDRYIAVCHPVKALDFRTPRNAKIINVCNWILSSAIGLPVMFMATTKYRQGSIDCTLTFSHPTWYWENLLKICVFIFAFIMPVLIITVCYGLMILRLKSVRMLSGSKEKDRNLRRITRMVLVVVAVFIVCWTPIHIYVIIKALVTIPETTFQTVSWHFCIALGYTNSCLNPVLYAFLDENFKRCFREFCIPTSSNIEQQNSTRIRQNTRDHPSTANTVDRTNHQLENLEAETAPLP

CN(C)C(c1ccc(F)cc1)C1CCC2(CC1)c1[nH]c3ccccc3c1CCN2C(=O)COCc1ccccc1 (centres unmarked) [Compound 88, 2-(benzyloxyacetyl)-{1,1-[3-(dimethylamino-(4-fluorophenyl)methyl)-pentamethylene]-3,4-dihydro-1H-2,9-diazafluorene}]
μ opioid receptor [1 μmol], % inhibition: 11%

COCC(=O)N1CCc2c([nH]c3ccccc23)C12CCC(C(c1ccc(Cl)cc1)N(C)C)CC2 (centres unmarked) [Compound 97, 2-(methoxyacetyl)-{1,1-[3-(dimethylamino-(4-chlorophenyl)methyl)-pentamethylene]-3,4-dihydro-1H-2,9-diazafluorene}]
μ opioid receptor [1 μmol], % inhibition: 20%

CN(C)C(c1ccc(F)cc1)C1CCC2(CC1)c1[nH]c3ccccc3c1CCN2C(=O)CC(C)(C)C (centres unmarked) [Compound 62, 1-{1,1-[3-(dimethylamino-(4-fluorophenyl)methyl) -pentamethylene]-3,4-dihydro-1H-2,9-diazafluoren-2-yl}-3,3-dimethylbutan-1-one]
μ opioid receptor [1 μmol], % inhibition: 12%

CN(C)C(c1ccccc1)C1CCC2(CC1)c1[nH]c3ccccc3c1CCN2C(=O)CC(C)(C)C (centres unmarked) [Compound 56, 1-{1,1-[3-(dimethylamino-phenylmethyl)-pentamethylene]-3,4-dihydro-1H-2,9-diazafluoren-2-yl}-3,3-dimethylbutan-1-one]
μ opioid receptor [1 μmol], % inhibition: 36%

COc1ccc(CC(=O)N2CCc3c([nH]c4ccccc34)C23CCC(C(c2ccc(Cl)cc2)N(C)C)CC3)cc1OC (centres unmarked) [Compound 74, 2-[(3,4-dimethoxyphenyl)acetyl]-{1,1-[3-(dimethylamino-(4-chlorophenyl)-methyl)-pentamethylene]-3,4-dihydro-1H-2,9-diazafluorene}]
μ opioid receptor [1 μmol], % inhibition: 37%

CN(C)C(c1cccc(F)c1)C1CCC2(CC1)c1[nH]c3ccccc3c1CCN2C(=O)COc1ccc(Cl)cc1 (centres unmarked) [Compound 70, 2-[(4-chlorophenoxy)acetyl]-{1,1-[3-(dimethylamino-(3-fluorophenyl)methyl)-pentamethylene]-3,4-dihydro-1H-2,9-diazafluorene}]
μ opioid receptor [1 μmol], % inhibition: 31%

CN(C)C(c1cccc(F)c1)C1CCC2(CC1)c1[nH]c3ccccc3c1CCN2C(=O)Cc1ccc(F)cc1 (centres unmarked) [Compound 116, 2-[(4-fluorophenyl)acetyl]-{1,1-[3-(dimethylamino-(3-fluorophenyl)methyl)-pentamethylene]-3,4-dihydro-1H-2,9-diazafluorene}]
μ opioid receptor [1 μmol], % inhibition: 20%

CN(C)C(c1ccc(Cl)cc1)C1CCC2(CC1)c1[nH]c3ccccc3c1CCN2C(=O)C1CC1 (centres unmarked) [Compound 96, 2-(cyclopropylcarbonyl)-{1,1-[3-(dimethylamino-(4-chlorophenyl)methyl)-pentamethylene]-3,4-dihydro-1H-2,9-diazafluorene}]
μ opioid receptor [1 μmol], % inhibition: 18%

CN(C)C(c1ccccc1)C1CCC2(CC1)c1[nH]c3ccccc3c1CCN2C(=O)C1CCCC1 (centres unmarked) [Compound 125, 2-cyclopentylcarbonyl-{1,1-[3-(dimethylamino-phenylmethyl)-pentamethylene]-3,4-dihydro-1H-2,9-diazafluorene}]
μ opioid receptor [1 μmol], % inhibition: 29%

CN(C)C(c1ccc(F)cc1)C1CCC2(CC1)c1[nH]c3ccccc3c1CCN2C(=O)CCC1CCCC1 (centres unmarked) [Compound 85, 2-(3-cyclopentylpropanoyl)-{1,1-[3-(dimethylamino-(4-fluorophenyl)methyl)-pentamethylene]-3,4-dihydro-1H-2,9-diazafluorene}]
μ opioid receptor [1 μmol], % inhibition: 50%

CN(C)C(c1cccc(F)c1)C1CCC2(CC1)c1[nH]c3ccccc3c1CCN2C(=O)Cc1cccs1 (centres unmarked) [Compound 93, 2-(2-thienylacetyl)-{1,1-[3-(dimethylamino-(3-fluorophenyl)methyl)-pentamethylene]-3,4-dihydro-1H-2,9-diazafluorene}]
μ opioid receptor [1 μmol], % inhibition: 19%

CC(=Cc1ccccc1)C(=O)N1CCc2c([nH]c3ccccc23)C12CCC(C(c1ccc(F)cc1)N(C)C)CC2 (centres unmarked) [Compound 64, 1-{1,1-[3-(dimethylamino-(4-fluorophenyl)methyl) -pentamethylene]-3,4-dihydro-1H-2,9-diazafluoren-2-yl}-2-methyl-3-phenylprop-2-en-1-one]
μ opioid receptor [1 μmol], % inhibition: 15%

CC(CC(=O)N1CCc2c([nH]c3ccccc23)C12CCC(C(c1cccc(F)c1)N(C)C)CC2)c1ccccc1 (centres unmarked) [Compound 130, 1-{1,1-[3-(dimethylamino-(3-fluorophenyl)methyl) -pentamethylene]-3,4-dihydro-1H-2,9-diazafluoren-2-yl}-3-phenylbutan-1-one]
μ opioid receptor [1 μmol], % inhibition: 49%

COc1ccc(CC(=O)N2CCc3c([nH]c4ccccc34)C23CCC(C(c2ccc(F)cc2)N(C)C)CC3)cc1OC (centres unmarked) [Compound 63, 2-[(3,4-dimethoxyphenyl)acetyl]-{1,1-[3-(dimethylamino-(4-fluorophenyl)methyl)-pentamethylene]-3,4-dihydro-1H-2,9-diazafluorene}]
μ opioid receptor [1 μmol], % inhibition: 29%

CN(C)C(c1ccccc1)C1CCC2(CC1)c1[nH]c3ccccc3c1CCN2C(=O)Cc1ccc(F)cc1 (centres unmarked) [Compound 104, 2-[(4-fluorophenyl)acetyl]-{1,1-[3-(dimethylamino-phenylmethyl)-pentamethylene]-3,4-dihydro-1H-2,9-diazafluorene}]
μ opioid receptor [1 μmol], % inhibition: 39%

COc1ccc(CC(=O)N2CCc3c([nH]c4ccccc34)C23CCC(C(c2ccccc2)N(C)C)CC3)cc1OC (centres unmarked) [Compound 57, 2-[(3,4-dimethoxyphenyl)acetyl]-{1,1-[3-(dimethylamino-phenylmethyl)-pentamethylene]-3,4-dihydro-1H-2,9-diazafluorene}]
μ opioid receptor [1 μmol], % inhibition: 55%

CC(Oc1ccccc1)C(=O)N1CCc2c([nH]c3ccccc23)C12CCC(C(c1ccc(F)cc1)N(C)C)CC2 (centres unmarked) [Compound 141, 2-(2-phenoxypropanoyl)-{1,1-[3-(dimethylamino-(4-fluorophenyl)methyl)-pentamethylene]-3,4-dihydro-1H-2,9-diazafluorene}]
μ opioid receptor [1 μmol], % inhibition: 47%

CN(C)C(c1ccccc1)C1CCC2(CC1)c1[nH]c3ccccc3c1CCN2C(=O)COc1ccc(Cl)cc1 (centres unmarked) [Compound 60, 2-[(4-chlorophenoxy)acetyl]-{1,1-[3-(dimethylamino-phenylmethyl)-pentamethylene]-3,4-dihydro-1H-2,9-diazafluorene}]
μ opioid receptor [1 μmol], % inhibition: 26%

CCC(=O)N1CCc2c([nH]c3ccccc23)C12CCC(C(c1ccccc1)N(C)C)CC2 (centres unmarked) [Compound 102, 2-propionyl-{1,1-[3-(dimethylamino-phenylmethyl) -pentamethylene]-3,4-dihydro-1H-2,9-diazafluorene}]
μ opioid receptor [1 μmol], % inhibition: 55%

CC(=O)N1CCc2c([nH]c3ccccc23)C12CCC(C(c1cccc(F)c1)N(C)C)CC2 (centres unmarked) [Compound 89, acetyl-{1,1-[3-(dimethylamino-(3-fluorophenyl)methyl) -pentamethylene]-3,4-dihydro-1H-2,9-diazafluorene}]
μ opioid receptor [1 μmol], % inhibition: 10%

CC(C)C(=O)N1CCc2c([nH]c3ccccc23)C12CCC(C(c1ccc(Cl)cc1)N(C)C)CC2 (centres unmarked) [Compound 119, 2-isobutyryl-{1,1-[3-(dimethylamino-(4-chlorophenyl)methyl)-pentamethylene]-3,4-dihydro-1H-2,9-diazafluorene}]
μ opioid receptor [1 μmol], % inhibition: 40%

CCC(CC)C(=O)N1CCc2c([nH]c3ccccc23)C12CCC(C(c1ccc(F)cc1)N(C)C)CC2 (centres unmarked) [Compound 139, 1-{1,1-[3-(dimethylamino-(4-fluorophenyl)methyl) -pentamethylene]-3,4-dihydro-1H-2,9-diazafluoren-2-yl}-2-ethylbutan-1-one]
μ opioid receptor [1 μmol], % inhibition: 25%

CC(CC(=O)N1CCc2c([nH]c3ccccc23)C12CCC(C(c1ccc(F)cc1)N(C)C)CC2)c1ccccc1 (centres unmarked) [Compound 142, 1-{1,1-[3-(dimethylamino-(4-fluorophenyl)methyl) -pentamethylene]-3,4-dihydro-1H-2,9-diazafluoren-2-yl}-3-phenylbutan-1-one]
μ opioid receptor [1 μmol], % inhibition: 30%

CN(C)C(c1cccc(F)c1)C1CCC2(CC1)c1[nH]c3ccccc3c1CCN2C(=O)C1CC1 (centres unmarked) [Compound 91, 2-(cyclopropylcarbonyl)-{1,1-[3-(dimethylamino-(3-fluorophenyl)methyl)-pentamethylene]-3,4-dihydro-1H-2,9-diazafluorene}]
μ opioid receptor [1 μmol], % inhibition: 25%

CN(C)C(c1cccc(F)c1)C1CCC2(CC1)c1[nH]c3ccccc3c1CCN2C(=O)C1CCCCC1 (centres unmarked) [Compound 69, 2-(cyclohexylcarbonyl)-{1,1-[3-(dimethylamino-(3-fluorophenyl)methyl)-pentamethylene]-3,4-dihydro-1H-2,9-diazafluorene}]
μ opioid receptor [1 μmol], % inhibition: 26%

CC(C)CC(=O)N1CCc2c([nH]c3ccccc23)C12CCC(C(c1cccc(F)c1)N(C)C)CC2 (centres unmarked) [Compound 129, 1-{1,1-[3-(dimethylamino-(3-fluorophenyl)methyl) -pentamethylene]-3,4-dihydro-1H-2,9-diazafluoren-2-yl}-3-methylbutan-1-one]
μ opioid receptor [1 μmol], % inhibition: 74%
